Experimental data taken from patent publication US10323022B2, “Pyrrolidinyl urea, pyrrolidinyl thiourea and pyrrolidinyl guanidine compounds as TrkA kinase inhibitors” (Array BioPharma Inc., priority 2011, dated 2019).

Each molecule was assayed against TrkA (Homo sapiens (Human), UniProt P04629) (assay: TrkA Omnia Assay). Settings: averaged IC50; 20 nM enzyme, 500 μM ATP, 10 μM peptide substrate.
Assay type: biochemical
Procedure, shortened: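 Recombinant TrkA (20 nM) preincubated 10 min at ambient temperature with compound, then Omnia Tyr Peptide #4 (10 μM) and ATP (500 μM) added in 25 mM MOPS pH 7.5, 5 mM MgCl2, 0.005% Triton X-100. Fluorescence (ex 360/em 485 nm) followed continuously for 70 min; IC50 from initial rates by 4- or 5-parameter logistic fit.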

Sequence of TrkA (P04629 33-796): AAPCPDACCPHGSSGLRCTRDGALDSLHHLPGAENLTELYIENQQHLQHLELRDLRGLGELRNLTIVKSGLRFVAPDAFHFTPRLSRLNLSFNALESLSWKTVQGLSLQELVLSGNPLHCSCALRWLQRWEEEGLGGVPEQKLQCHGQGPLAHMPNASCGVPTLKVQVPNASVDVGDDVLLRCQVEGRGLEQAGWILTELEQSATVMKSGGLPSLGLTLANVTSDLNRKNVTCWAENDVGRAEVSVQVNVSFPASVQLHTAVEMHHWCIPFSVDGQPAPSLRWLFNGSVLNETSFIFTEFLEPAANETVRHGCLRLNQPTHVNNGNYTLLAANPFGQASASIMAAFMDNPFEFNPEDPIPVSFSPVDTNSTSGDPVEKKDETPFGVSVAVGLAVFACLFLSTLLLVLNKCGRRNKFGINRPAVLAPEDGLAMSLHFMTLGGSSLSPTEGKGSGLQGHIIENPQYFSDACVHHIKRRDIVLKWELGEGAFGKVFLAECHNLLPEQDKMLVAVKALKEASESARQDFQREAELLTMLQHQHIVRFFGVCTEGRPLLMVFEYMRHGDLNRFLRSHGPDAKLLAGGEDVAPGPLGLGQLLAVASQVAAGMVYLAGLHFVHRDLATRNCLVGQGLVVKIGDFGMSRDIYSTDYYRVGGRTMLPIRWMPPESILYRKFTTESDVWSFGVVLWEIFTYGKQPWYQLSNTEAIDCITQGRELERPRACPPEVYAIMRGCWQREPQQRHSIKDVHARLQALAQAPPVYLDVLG

| Compound | IC50 |
| --- | --- |
| COCCN1C[C@@H](NC(=O)Nc2c(C)c(-c3cnn(C)c3)nn2-c2ccccc2)[C@H](c2ccc(F)cc2)C1 [Example 441, 1-(1′,4-dimethyl-1-phenyl-1H, 1′H-[3,4′-bipyrazol]-5-yl)-3-((3S,4R)-4-(4-fluorophenyl)-1-(2-methoxyethyl)pyrrolidin-3-yl)urea] | < 0.1 µM |
| COCCN1C[C@@H](NC(=O)Nc2c(C)c(-c3cnn(C)c3)nn2-c2ccccc2)[C@H](c2cc(F)cc(F)c2)C1 [Example 442, 1-(1′,4-dimethyl-1-phenyl-1H, 1′H-[3,4′-bipyrazol]-5-yl)-3-((3S,4R)-4-(3,5-difluorophenyl)-1-(2-methoxyethyl)pyrrolidin-3-yl)urea] | < 0.1 µM |
| COCCN1C[C@@H](NC(=O)Nc2c(C)c(-c3cnn(C)c3)nn2-c2ccccc2)[C@H](c2cc(F)c(F)c(F)c2)C1 [Example 443, 1-(1′,4-dimethyl-1-phenyl-1H, 1′H-[3,4′-bipyrazol]-5-yl)-3-((3S,4R)-4-(3,4,5-trifluorophenyl)-1-(2-methoxyethyl)pyrrolidin-3-yl)urea] | < 0.1 µM |
| COCCN1C[C@@H](NC(=O)Nc2c(C)c(-c3cnn(Cc4ccc(OC)cc4)c3)nn2-c2ccccc2)[C@H](c2ccc(F)c(F)c2)C1 [Example 446, 1-((3S,4R)-4-(3,4-difluorophenyl)-1-(2-methoxyethyl)pyrrolidin-3-yl)-3-(1′-(4-methoxybenzyl)-4-methyl-1-phenyl-1H, 1′H-[3,4′-bipyrazol]-5-yl)urea] | < 0.1 µM |
| COCCN1C[C@@H](NC(=O)Nc2c(C)c(-c3cn[nH]c3)nn2-c2ccccc2)[C@H](c2ccc(F)c(F)c2)C1 [Example 447] | < 0.1 µM |
| COCCN1C[C@@H](NC(=O)Nc2c(Cl)c(CCOC(C)=O)nn2-c2ccccc2)[C@H](c2ccc(F)c(F)c2)C1 [Example 448, 2-(4-chloro-5-(3-((3S,4R)-4-(3,4-difluorophenyl)-1-(2-methoxyethyl)pyrrolidin-3-yl)ureido)-1-phenyl-1H-pyrazol-3-yl)ethyl acetate] | < 0.1 µM |
| COCCN1C[C@@H](NC(=O)Nc2c(Cl)c(CCO)nn2-c2ccccc2)[C@H](c2ccc(F)c(F)c2)C1 [Example 449, 1-(4-chloro-3-(2-hydroxyethyl)-1-phenyl-1H-pyrazol-5-yl)-3-((3S,4R)-4-(3,4-difluorophenyl)-1-(2-methoxyethyl)pyrrolidin-3-yl)urea] | < 0.1 µM |
| COCCN1C[C@@H](NC(=O)Nc2c(C)c([C@H]3C[C@@H](O)C3)nn2-c2ccccc2)[C@H](c2ccc(F)c(F)c2)C1 [Example 450, 1-((3S,4R)-4-(3,4-difluorophenyl)-1-(2-methoxyethyl)pyrrolidin-3-yl)-3-(3-(cis-3-hydroxycyclobutyl)-4-methyl-1-phenyl-1H-pyrazol-5-yl)urea] | < 0.1 µM |
| COCCN1C[C@@H](NC(=O)Nc2c(C)c([C@H]3C[C@H](O)C3)nn2-c2ccccc2)[C@H](c2ccc(F)c(F)c2)C1 [Example 451, 1-((3S,4R)-4-(3,4-difluorophenyl)-1-(2-methoxyethyl)pyrrolidin-3-yl)-3-(3-(trans-3-hydroxycyclobutyl)-4-methyl-1-phenyl-1H-pyrazol-5-yl)urea] | < 0.1 µM |
| COCCN1C[C@@H](NC(=O)Nc2c(Cl)c([C@H]3C[C@@H](O)C3)nn2-c2ccccc2)[C@H](c2ccc(F)c(F)c2)C1 [Example 452, 1-(4-chloro-3-(cis-3-hydroxvcyclobutyl)-1-phenyl-1H-pyrazol-5-yl)-3-((3S,4R)-4-(3,4-difluorophenyl)-1-(2-methoxyethyl)pyrrolidin-3-yl)urea] | < 0.1 µM |
| COCCN1C[C@@H](NC(=O)Nc2c(Cl)c([C@H]3C[C@H](O)C3)nn2-c2ccccc2)[C@H](c2ccc(F)c(F)c2)C1 [Example 453, 1-(4-chloro-3-((1r,3S)-3-hydroxycyclobutyl)-1-phenyl-1H-pyrazol-5-yl)-3-(trans-4-(3,4-difluorophenyl)-1-(2-methoxyethyl)pyrrolidin-3-yl)urea] | < 0.1 µM |
| COCCN1C[C@@H](NC(=O)Nc2c(C)c([C@H]3C[C@@H](O)C3)nn2-c2ccccc2)[C@H](c2ccc(F)cc2)C1 [Example 454, 1-((3S,4R)-4-(4-fluorophenyl)-1-(2-methoxyethyl)pyrrolidin-3-yl)-3-(3-(cis-3-hydroxycyclobutyl)-4-methyl-1-phenyl-1H-pyrazol-5-yl)urea] | < 0.1 µM |
| COCCN1C[C@@H](NC(=O)Nc2c(C)c([C@H]3C[C@H](O)C3)nn2-c2ccccc2)[C@H](c2ccc(F)cc2)C1 [Example 455, 1-((3S,4R)-4-(4-fluorophenyl)-1-(2-methoxyethyl)pyrrolidin-3-yl)-3-(3-(trans-3-hydroxycyclobutyl)-4-methyl-1-phenyl-1H-pyrazol-5-yl)urea] | < 0.1 µM |
| COCCN1C[C@@H](NC(=O)Nc2c(C)c([C@H]3C[C@@H](O)C3)nn2-c2ccccc2)[C@H](c2cc(F)cc(F)c2)C1 [Example 456, 1-((3S,4R)-4-(3,5-difluorophenyl)-1-(2-methoxyethyl)pyrrolidin-3-yl)-3-(3-(cis-3-hydroxycyclobutyl)-4-methyl-1-phenyl-1H-pyrazol-5-yl)urea] | < 0.1 µM |
| COCCN1C[C@@H](NC(=O)Nc2c(C)c([C@H]3C[C@H](O)C3)nn2-c2ccccc2)[C@H](c2cc(F)cc(F)c2)C1 [Example 457, 1-((3S,4R)-4-(3,5-difluorophenyl)-1-(2-methoxyethyl)pyrrolidin-3-yl)-3-(3-(trans-3-hydroxycyclobutyl)-4-methyl-1-phenyl-1H-pyrazol-5-yl)urea] | < 0.1 µM |
| COCCN1C[C@@H](NC(=O)Nc2c(C)c(C(=O)O)nn2-c2ccccc2)[C@H](c2ccc(F)c(F)c2)C1 [Example 458, 5-(3-((3S,4R)-4-(3,4-difluorophenyl)-1-(2-methoxyethyl)pyrroidin-3-yl)ureido)-4-methyl-1-phenyl-1H-pyrazole-3-carboxylic acid] | 0.1 to 1 µM |
| CNC(=O)c1nn(-c2ccccc2)c(NC(=O)N[C@@H]2CN(CCOC)C[C@H]2c2ccc(F)c(F)c2)c1C [Example 459, 5-(3-((3S,4R)-4-(3,4-difluorophenyl)-1-(2-methoxyethyl)pyrrolidin-3-yl)ureido)-N,4-dimethyl-1-phenyl-1H-pyrazole-3-carboxamide] | < 0.1 µM |
| COCCN1C[C@@H](NC(=O)Nc2c(C)c(C(=O)N(C)C)nn2-c2ccccc2)[C@H](c2ccc(F)c(F)c2)C1 [Example 460, 5-(3-((3S,4R)-4-(3,4-difluorophenyl)-1-(2-methoxyethyl)pyrrolidin-3-yl)ureido)-N,N,4-trimethyl-1-phenyl-1H-pyrazole-3-carboxamide] | < 0.1 µM |
| CCNC(=O)c1nn(-c2ccccc2)c(NC(=O)N[C@@H]2CN(CCOC)C[C@H]2c2ccc(F)c(F)c2)c1C [Example 461, 5-(3-((3S,4R)-4-(3,4-difluorophenyl)-1-(2-methoxyethyl)pyrrolidin-3-yl)ureido)-N-ethyl-4-methyl-1-phenyl-1H-pyrazole-3-carboxamide] | < 0.1 µM |
| COCCN1C[C@@H](NC(=O)Nc2c(C)c(C(=O)NC(C)C)nn2-c2ccccc2)[C@H](c2ccc(F)c(F)c2)C1 [Example 462, 5-(3-((3S,4R)-4-(3,4-difluorophenyl)-1-(2-methoxyethyl)pyrrolidin-3-yl)ureido)-N-isopropyl-4-methyl-1-phenyl-1H-pyrazole-3-carboxamide] | < 0.1 µM |
| COCCN1C[C@@H](NC(=O)Nc2c(C)c(C(N)=O)nn2-c2ccccc2)[C@H](c2ccc(F)c(F)c2)C1 [Example 463, 5-(3-((3S,4R)-4-(3,4-difluorophenyl)-1-(2-methoxyethyl)pyrrolidin-3-yl)ureido)-4-methyl-1-phenyl-1H-pyrazole-3-carboxamide] | < 0.1 µM |
| CCOc1nn(-c2ccccc2)c(NC(=O)N[C@@H]2CN(CCOC)C[C@H]2c2cc(F)cc(F)c2)c1CO [Example 464, 1-((3S,4R)-4-(3,5-difluorophenyl)-1-(2-methoxyethyl)pyrrolidin-3-yl)-3-(3-ethoxy-4-(hydroxymethyl)-1-phenyl-1H-pyrazol-5-yl)urea] | < 0.1 µM |
| COCCN1C[C@@H](NC(=O)Nc2c(C)c(-c3cnn(C)c3)nn2-c2ccccc2)[C@H](c2ccc(F)c(Cl)c2)C1 [Example 465, 1-((3S,4R)-4-(3-chloro-4-fluorophenyl)-1-(2-methoxyethyl)pyrrolidin-3-yl)-3-(1′,4-dimethyl-1-phenyl-1H, 1′H-3,4′-bipyrazol-5-yl)urea] | < 0.1 µM |
| COCCN1C[C@@H](NC(=O)Nc2c(C)c(-c3cnn(C)c3)nn2-c2ccccc2)[C@H](c2ccc(Cl)c(F)c2)C1 [Example 466, 1-((3S,4R)-4-(4-chloro-3-fluorophenyl)-1-(2-methoxyethyl)pyrrolidin-3-yl)-3-(1′,4-dimethyl-1-phenyl-1H, 1′H-3,4′-bipyrazol-5-yl)urea] | < 0.1 µM |
| COCCN1C[C@@H](NC(=O)Nc2c(C)c(-c3cnn(C)c3)nn2-c2ccccc2)[C@H](c2cc(F)cc(Cl)c2)C1 [Example 467, 1-((3S,4R)-4-(3-chloro-5-fluorophenyl)-1-(2-methoxyethyl)pyrrolidin-3-yl)-3-(1′,4-dimethyl-1-phenyl-1H, 1′H-3,4′-bipyrazol-5-yl)urea] | < 0.1 µM |
| CCOc1nn(-c2ccccc2)c(NC(=O)N[C@@H]2CN(CC(=O)OC)C[C@H]2c2ccc(F)c(F)c2)c1C [Example 468, methyl 2-((3R,4S)-3-(3,4-difluorophenyl)-4-(3-(3-ethoxy-4-methyl-1-phenyl-1H-pyrazol-5-yl)ureido)pyrrolidin-1-yl)acetate] | < 0.1 µM |
| CCOc1nn(-c2ccccc2)c(NC(=O)N[C@@H]2CN(CC(O)C(F)(F)F)C[C@H]2c2ccc(F)c(F)c2)c1C (stereo partly drawn) [Example 469, 1-((3S,4R)-4-(3,4-difluorophenyl)-1-(3,3,3-trifluoro-2-hydroxypropyl)pyrrolidin-3-yl)-3-(3-ethoxy-4-methyl-1-phenyl-1H-pyrazol-5-yl)urea] | 1 to 10 µM |
| CCOc1nn(-c2ccccc2)c(NC(=O)N[C@@H]2CN(CC(C)O)C[C@H]2c2ccc(F)c(F)c2)c1C (stereo partly drawn) [Example 470, 1-((3S,4R)-4-(3,4-difluorophenyvl)-1-(2-hydroxypropyl)pyrrolidin-3-yl)-3-(3-ethoxy-4-methyl-1-phenyl-1H-pyrazol-5-yl)urea] | 0.1 to 1 µM |
